From the NIST ThermoML archive (doi:10.1021/je030107c)
Several values for one entry are separate records, joined by “and”; a condition that tells them apart may be missing. Equal values may be shown once.

Tests used:
[1] = refractive index (Na D-line) (dimensionless); xn = mol fraction of the nth substance listed; details: 101.3 kPa, Liquid, Standard Abbe refractometry
[2] = xn = mol fraction of the nth substance listed; details: 101.3 kPa, Liquid; for viscosity: Capillary tube (Ostwald / Ubbelohde) method; for speed of sound: Linear variable-path acoustic interferometer; for mass density: Pycnometric method
[3] = 101.3 kPa, Liquid; for viscosity: Capillary tube (Ostwald / Ubbelohde) method; for speed of sound: Linear variable-path acoustic interferometer; for mass density: Pycnometric method
[4] = refractive index (Na D-line) (dimensionless); details: 101.33 kPa, Liquid, Standard Abbe refractometry

C1COCCO1 [1,4-dioxane] + CCN(CC)CC
x1 = 1
Details | mass density, 298.15 K [kg/m3] | mass density, 303.15 K [kg/m3] | mass density, 308.15 K [kg/m3] | refractive index, 298.15 K | refractive index, 303.15 K | refractive index, 308.15 K | speed of sound, 298.15 K [m/s] | viscosity, 298.15 K [mPa·s] | viscosity, 303.15 K [mPa·s] | viscosity, 308.15 K [mPa·s]
[1] | – | – | – | 1.4201 | 1.417 | 1.4143 | – | – | – | –
[2] | 1027.6 | 1021.9 | 1016.2 | – | – | – | 1343 | 1.166 | 1.069 | 0.984

CCCCCC [hexane]
Details | mass density, 298.15 K [kg/m3] | mass density, 303.15 K [kg/m3] | mass density, 308.15 K [kg/m3] | refractive index, 298.15 K | refractive index, 303.15 K | refractive index, 308.15 K | speed of sound, 298.15 K [m/s] | viscosity, 298.15 K [mPa·s] | viscosity, 303.15 K [mPa·s] | viscosity, 308.15 K [mPa·s]
[3] | 654.8 | 649.7 | 644.8 | – | – | – | 1083 | 0.315 | 0.299 | 0.286
[4] | – | – | – | 1.3728 | 1.3698 | 1.367 | – | – | – | –

CCCCN(CCCC)CCCC [tributylamine]
Details | mass density, 298.15 K [kg/m3] | mass density, 303.15 K [kg/m3] | mass density, 308.15 K [kg/m3] | refractive index, 298.15 K | refractive index, 303.15 K | refractive index, 308.15 K | speed of sound, 298.15 K [m/s] | viscosity, 298.15 K [mPa·s] | viscosity, 303.15 K [mPa·s] | viscosity, 308.15 K [mPa·s]
[3] | 774.4 | 770.1 | 766.2 | – | – | – | 1261 | 1.36 | 1.221 | 1.125
[4] | – | – | – | 1.4274 | 1.4251 | 1.4226 | – | – | – | –

OCCO [1,2-ethanediol]
Details | mass density, 298.15 K [kg/m3] | mass density, 303.15 K [kg/m3] | mass density, 308.15 K [kg/m3] | refractive index, 298.15 K | refractive index, 303.15 K | refractive index, 308.15 K | speed of sound, 298.15 K [m/s] | viscosity, 298.15 K [mPa·s] | viscosity, 303.15 K [mPa·s] | viscosity, 308.15 K [mPa·s]
[3] | 1111.3 | 1107.3 | 1103.5 | – | – | – | 1659 | 12.62 | 9.618 | 7.539
[4] | – | – | – | 1.4307 | 1.4269 | 1.4246 | – | – | – | –

CCCCCC [hexane] + C1COCCO1
x2 = 0
Details | mass density, 298.15 K [kg/m3] | mass density, 303.15 K [kg/m3] | mass density, 308.15 K [kg/m3] | refractive index, 298.15 K | refractive index, 303.15 K | refractive index, 308.15 K | speed of sound, 298.15 K [m/s] | viscosity, 298.15 K [mPa·s] | viscosity, 303.15 K [mPa·s] | viscosity, 308.15 K [mPa·s]
[1] | – | – | – | 1.3728 | 1.3698 | 1.367 | – | – | – | –
[2] | 654.8 | 649.7 | 644.8 | – | – | – | 1083 | 0.315 | 0.299 | 0.286

C1COCCO1 [1,4-dioxane] + CCCCN(CCCC)CCCC
x1 = 1
Details | mass density, 298.15 K [kg/m3] | mass density, 303.15 K [kg/m3] | mass density, 308.15 K [kg/m3] | refractive index, 298.15 K | refractive index, 303.15 K | refractive index, 308.15 K | speed of sound, 298.15 K [m/s] | viscosity, 298.15 K [mPa·s] | viscosity, 303.15 K [mPa·s] | viscosity, 308.15 K [mPa·s]
[1] | – | – | – | 1.4201 | 1.417 | 1.4143 | – | – | – | –
[2] | 1027.6 | 1021.9 | 1016.2 | – | – | – | 1343 | 1.166 | 1.069 | 0.984

C1COCCO1 [1,4-dioxane]
Details | mass density, 298.15 K [kg/m3] | mass density, 303.15 K [kg/m3] | mass density, 308.15 K [kg/m3] | refractive index, 298.15 K | refractive index, 303.15 K | refractive index, 308.15 K | speed of sound, 298.15 K | viscosity, 298.15 K [mPa·s] | viscosity, 303.15 K [mPa·s] | viscosity, 308.15 K [mPa·s]
[3] | 1027.6 | 1021.9 | 1016.2 | – | – | – | 1347 m/s and 1343 m/s | 1.166 | 1.069 | 0.984
[4] | – | – | – | 1.4201 | 1.417 | 1.4143 | – | – | – | –

CCN(CC)CC [triethylamine]
Details | mass density, 298.15 K [kg/m3] | mass density, 303.15 K [kg/m3] | mass density, 308.15 K [kg/m3] | refractive index, 298.15 K | refractive index, 303.15 K | refractive index, 308.15 K | speed of sound, 298.15 K [m/s] | viscosity, 298.15 K [mPa·s] | viscosity, 303.15 K [mPa·s] | viscosity, 308.15 K [mPa·s]
[3] | 723.1 | 718.5 | 713.6 | – | – | – | 1127 | 0.363 | 0.347 | 0.33
[4] | – | – | – | 1.3983 | 1.3955 | 1.3926 | – | – | – | –

OCCO [1,2-ethanediol] + C1COCCO1
x2 = 0
Details | mass density, 298.15 K [kg/m3] | mass density, 303.15 K [kg/m3] | mass density, 308.15 K [kg/m3] | refractive index, 298.15 K | refractive index, 303.15 K | refractive index, 308.15 K | speed of sound, 298.15 K [m/s] | viscosity, 298.15 K [mPa·s] | viscosity, 303.15 K [mPa·s] | viscosity, 308.15 K [mPa·s]
[1] | – | – | – | 1.4307 | 1.4269 | 1.4246 | – | – | – | –
[2] | 1111.3 | 1107.3 | 1103.5 | – | – | – | 1659 | 12.62 | 9.618 | 7.539
